In ChEMBL document CHEMBL2311313, “Inhibitors of HIV-1 attachment. Part 11: the discovery and structure-activity relationships associated with 4,6-diazaindole cores” (Bioorg Med Chem Lett, 2013):
pEC50: −log10 of the molar value. ≈ marks a conversion by molar mass, not a printed value.

How the values were obtained:
[1] = tested on: Human immunodeficiency virus 1; assay: Antiviral activity against HIV1 JRFL infected in human HeLa cells expressing CD4 and CCR5 after 3 days by luciferase reporter gene assay; type: functional, organism-based; conditions: Human immunodeficiency virus 1, JRFL, 72 h
[2] = Cytotoxicity against human HeLa cells expressing CD4 and CCR5 assessed as cell viability after 6 days by XTT assay; type: cell-based
[3] = Solubility of the compound in amorphous form at pH 6.5; type: physicochemical; conditions: buffer
[4] = Therapeutic index, ratio of CC50 for human HeLa cells expressing CD4 and CCR5 to EC50 for HIV1 JRFL infected in human HeLa cells expressing CD4 and CCR5; type: cell-based; conditions: read-out: Ratio CC50/EC50
[5] = Oral bioavailability in rat at 5 mg/kg; type: ADME, organism-based; conditions: in vivo
[6] = Clearance in rat at 1 mg/kg, iv; type: ADME, organism-based; parameters: dose 1 mg/kg, route intravenous; conditions: in vivo
[7] = AUC in rat at 5 mg/kg, po; type: ADME, organism-based; parameters: dose 5 mg/kg, route oral; conditions: plasma

| SMILES | pEC50 [1] | CC50 at 144 h [2] | further results |
| --- | --- | --- | --- |
| COc1ccc(-c2ccn(-c3ncnc4c(C(=O)C(=O)N5CCN(C(=O)c6ccccc6)CC5)c[nH]c34)n2)cc1 | 9.62 | – | solubility [3]: 1 µg/mL (≈ 1.87 µM) |
| CCOc1ncnc2c(C(=O)C(=O)N3CCN(C(=O)c4ccccc4)CC3)c[nH]c12 | 7.92 | > 150000 nM | – |
| CNCCCCNC(=O)c1ccn(-c2ncnc3c(C(=O)C(=O)N4CCN(C(=O)c5ccccc5)CC4)c[nH]c23)n1 | 8.32 | – | solubility [3]: 1730 µg/mL (≈ 3100 µM) |
| CN1CCN(c2ncnc3c(C(=O)C(=O)N4CCN(C(=O)c5ccccc5)CC4)c[nH]c23)CC1 | < 5.30 | > 300000 nM | – |
| O=C(O)c1ccn(-c2ncnc3c(C(=O)C(=O)N4CCN(C(=O)c5ccccc5)CC4)c[nH]c23)n1 | 9.12 | – | solubility [3]: 1070 µg/mL (≈ 2260 µM) |
| CC(=O)c1ncnc2c(C(=O)C(=O)N3CCN(C(=O)c4ccccc4)CC3)c[nH]c12 | 7.74 | > 300000 nM | – |
| O=C(C(=O)N1CCN(C(=O)c2ccccc2)CC1)c1c[nH]c2c(-n3ccc(-c4ccccn4)n3)ncnc12 | 9.82 | – | solubility [3]: 8 µg/mL (≈ 15.8 µM) |
| O=C(C(=O)N1CCN(C(=O)c2ccccc2)CC1)c1c[nH]c2c(-n3ccc(-c4ccc(F)cc4)n3)ncnc12 | > 9.80 | – | – |
| Cc1ccn(-c2ncnc3c(C(=O)C(=O)N4CCN(C(=O)c5ccccc5)CC4)c[nH]c23)n1 | 9.82 | > 300000 nM | bioavailability [5]: 45%; solubility [3]: 8 µg/mL (≈ 18 µM); clearance [6]: 4.8 mL/min/kg; AUC [7]: 17.8 µM·h |
| COc1ccccc1-c1ccn(-c2ncnc3c(C(=O)C(=O)N4CCN(C(=O)c5ccccc5)CC4)c[nH]c23)n1 | 9.44 | – | solubility [3]: 4 µg/mL (≈ 7.47 µM) |
| Cc1ncn(-c2ncnc3c(C(=O)C(=O)N4CCN(C(=O)c5ccccc5)CC4)c[nH]c23)n1 | 9.44 | > 150000 nM | bioavailability [5]: 19%; clearance [6]: 7.6 mL/min/kg; AUC [7]: 4.9 µM·h |
| CN(C)C(=O)c1ccn(-c2ncnc3c(C(=O)C(=O)N4CCN(C(=O)c5ccccc5)CC4)c[nH]c23)n1 | 8.70 | – | – |
| O=C(C(=O)N1CCN(C(=O)c2ccccc2)CC1)c1c[nH]c2c(-n3ccc(-c4ccccc4)n3)ncnc12 | 9.55 | – | solubility [3]: 1 µg/mL (≈ 1.98 µM) |
| O=C(C(=O)N1CCN(C(=O)c2ccccc2)CC1)c1c[nH]c2c(-n3ccc(-c4cccc(C(F)(F)F)c4)n3)ncnc12 | 9.43 | – | solubility [3]: 60 µg/mL (≈ 105 µM) |

The next lines start with results.

| pEC50 [1] | SMILES | CC50 at 144 h [2] | further results |
| --- | --- | --- | --- |
| 8.28 | O=C(C(=O)N1CCN(C(=O)c2ccccc2)CC1)c1c[nH]c2c(-c3ccnnc3)ncnc12 | > 300000 nM | – |
| 8.96 | Cc1cnn(-c2ncnc3c(C(=O)C(=O)N4CCN(C(=O)c5ccccc5)CC4)c[nH]c23)c1 | > 300000 nM | – |
| 7.96 | O=C(C(=O)N1CCN(C(=O)c2ccccc2)CC1)c1c[nH]c2c(Cl)ncnc12 | > 300000 nM | – |
| 7.96 | O=C(C(=O)N1CCN(C(=O)c2ccccc2)CC1)c1c[nH]c2c(-n3nccn3)ncnc12 | > 150000 nM | – |
| 7.92 | O=C(C(=O)N1CCN(C(=O)c2ccccc2)CC1)c1c[nH]c2c(-c3ccncc3)ncnc12 | > 300000 nM | – |
| 9.60 | O=C(C(=O)N1CCN(C(=O)c2ccccc2)CC1)c1c[nH]c2c(-c3cnccn3)ncnc12 | 78000 nM | selectivity ratio [4]: > 15000 |
| 9.47 | O=C(C(=O)N1CCN(C(=O)c2ccccc2)CC1)c1c[nH]c2c(-c3ccccn3)ncnc12 | 6000 nM | selectivity ratio [4]: > 15000 |
| 8.89 | O=C(C(=O)N1CCN(C(=O)c2ccccc2)CC1)c1c[nH]c2c(-c3cccnc3)ncnc12 | > 300000 nM | – |
| 10.00 | O=C(C(=O)N1CCN(C(=O)c2ccccc2)CC1)c1c[nH]c2c(-n3cncn3)ncnc12 | > 300000 nM | bioavailability [5]: 15%; clearance [6]: 35 mL/min/kg; AUC [7]: 0.83 µM·h |
| 7.36 | N#Cc1ncnc2c(C(=O)C(=O)N3CCN(C(=O)c4ccccc4)CC3)c[nH]c12 | > 300000 nM | – |
| 8.39 | COc1ncnc2c(C(=O)C(=O)N3CCN(C(=O)c4ccccc4)CC3)c[nH]c12 | > 300000 nM | – |
| 8.57 | O=C(C(=O)N1CCN(C(=O)c2ccccc2)CC1)c1c[nH]c2c(-c3cncnc3)ncnc12 | > 300000 nM | – |
| 9.06 | Cc1cc(-c2ncnc3c(C(=O)C(=O)N4CCN(C(=O)c5ccccc5)CC4)c[nH]c23)on1 | 177000 nM | – |
| 9.51 | O=C(C(=O)N1CCN(C(=O)c2ccccc2)CC1)c1c[nH]c2c(-c3cc[nH]n3)ncnc12 | > 300000 nM | – |
